From US11085022B2 (priority 2014, dated 2021)

Assays:
[1] = In-vivo distribution and paw targeting in adjuvant arthritis model mice; settings: mouse; for concentration at 0.5 h / concentration at 1 h / concentration at 2 h / concentration at 4 h / concentration at 8 h / concentration at 12 h: 15 mg/kg, iv ibuprofen 15 mg/kg
Procedure: (§1) Adjuvant arthritis mouse model: The BCG vaccine was inactivated for 1 hr in a water bath at 80° C., and ground and mixed fully with autoclaved paraffin, to prepare a 10 mg/ml complete Freund adjuvant (CFA). 0.1 ml CFA was intracutaneously injected into the metatarsal in the right rear foot of the mice for inflammation induction.
(§2) 72 mice with inflammation were randomized to 2 groups, each group having 36 animals. Before administration, the mice were fasted, but allowed to free access to water overnight. […] 0.167 h, 0.5 h, 1 h, 2 h, 4 h, 8 h, 12 h, 24 h, 48 h, 72 h, 96 h, and 120 h after administration, the eyeballs were removed to collect the blood, and then the mice were sacrificed. The heart, liver, spleen, kidney, and the metatarsal tissue in the right rear foot were removed, washed with physiological saline, and weighed after the residual physiological saline was aspirated off with filter paper.
(§3) The tissue samples (heart, liver, spleen, kidney, and metatarsal in the right rear foot) from the mice with inflammation were weighed, placed in a blood collection tube, added with 2 mL physiological saline, and dispersed by a tissue homogenizer at a high speed, to give a tissue homogenate. 200 μL acetonitrile was added to 200 μL of each tissue homogenate, vortexed for 5 min, and centrifuged for 10 min at 10000×g.
The paw targeting efficiency (Te) refers to the ratio of AUCs of the same preparation in the inflammatory site, that is, the paw, and in other tissues. […] The larger the Te is, the higher the selectivity of the preparation for the non-specific inflammatory site (the metatarsal in the right rear foot) will be, as compared with the selectivity for other comparative tissues.

ear swelling model mice = experiment: Degree of ear swelling in ear swelling model mice; assay type: in vivo; settings: 15 mg/kg; compared with the physiological saline group; difference in the weight of the ears
Procedure: 48 inflammation model mice were randomized to 4 groups, each group having 12 animals. […] A control group having 12 mice with primary tumor was also set. […] All the animals were administered at days 1, 2, 3, 4, 6, 8, and 10 after surgery, and a total of 7 administrations were presented. Groups given with the neutrophil granulocytes of the same density and the physiological saline of the same volume were also set and used as a blank control. The mice were administrated for 3 consecutive days, and then sacrificed by cervical vertebra dislocation after the 3 administrations. Round specimens were punched from the same portion of the left and the right ears by a 7 mm punch and weighed on an analytical balance. The degree of ear swelling was indicated by the difference in the weight of the ears, and the anti-inflammatory effects of the drugs were compared, as shown in FIG. 15.

[2] = tested on: adjuvant arthritis model mice; experiment: Osteoarthritis index score in adjuvant arthritis model mice; assay type: in vivo; settings: 15 mg/kg, 7 administrations; compared with the physiological saline group
Procedure: as §1

[3] = In-vivo distribution and ear targeting in ear swelling model mice; settings: male, mouse, 15 mg/kg
Procedure: Ear swelling mouse model: Round pieces of filter paper that were 7 mm in diameter and soaked with dimethyl benzene were tightly attached for 15 s to the right ears of clean-grade male mice weighed 18-22 g.
as §2, with “ear tissues” for “the metatarsal tissue in the right rear foot”
as §3, with “ear)” for “metatarsal in the right rear foot)”
The ear targeting efficiency (Te) refers to the ratio of AUCs of the same preparation in the ear and in other tissues. […]

Streptococcus pneumoniae = experiment: Survival time of streptococcal pneumonia model mice; assay type: in vivo; settings: 10 mg/kg, 7 administrations
Procedure: 48 inflammation model mice were randomized to 4 groups, each group having 12 animals. […] All the animals were administered at days 1, 2, 3, 4, 6, 8, and 10 after surgery, and a total of 7 administrations were presented. Groups given with the neutrophil granulocytes of the same density and the physiological saline of the same volume were also set and used as a blank control.

## CC(C)Cc1ccc(C(C)C(=O)O)cc1 (centres unmarked) [ibuprofen]
[1]
  organ(s) with the largest distribution: liver
[1]; Distribution in Heart
  concentration at 0.5 h: 6350 ng/g
  concentration at 1 h: 4240 ng/g
  concentration at 2 h: 2990 ng/g
  concentration at 4 h: 1870 ng/g
  concentration at 8 h: 550 ng/g
  concentration at 12 h: 340 ng/g
[1]; Distribution in Kidney
  concentration at 0.5 h: 2790 ng/g
  concentration at 1 h: 3900 ng/g
  concentration at 2 h: 2680 ng/g
  concentration at 4 h: 1910 ng/g
  concentration at 8 h: 620 ng/g
  concentration at 12 h: 450 ng/g
[1]; Distribution in Liver
  concentration at 0.5 h: 11900 ng/g
  concentration at 1 h: 10000 ng/g
  concentration at 2 h: 8320 ng/g
  concentration at 4 h: 7370 ng/g
  concentration at 8 h: 6330 ng/g
  concentration at 12 h: 2000 ng/g
[1]; Distribution in Spleen
  concentration at 0.5 h: 6010 ng/g
  concentration at 1 h: 3990 ng/g
  concentration at 2 h: 2420 ng/g
  concentration at 4 h: 1980 ng/g
  concentration at 8 h: 1210 ng/g
  concentration at 12 h: 670 ng/g
[1]; Distribution in paw
  concentration at 0.5 h: 430 ng/g
  concentration at 1 h: 370 ng/g
  concentration at 2 h: 210 ng/g
Ear swelling model mice
  degree of ear swelling: no obvious improvement
[2]
  time at which the peak score occurs: prolonged somewhat
[3]
  concentration at 1 h: 3990 ng/g

## C[C@H]1COc2c(N3CCN(C)CC3)c(F)cc3c(=O)c(C(=O)O)cn1c23 [levofloxacin]
Streptococcus pneumoniae
  survival time: about 21 days
